Experimental data taken from patent publication US10798893B2, “Induced chromosome doubling in plants” (Dow AgroSciences LLC, priority 2009, dated 2020).
Like-named read-outs stand apart in the source and are kept apart here.

Legend:
[1] = test system: germinated haploid maize seedlings; assay: Foliar spray treatment of germinated haploid maize seedlings in soil at V1-V3 stage; type: in vivo
Procedure: Haploid maize seeds were planted in Sun Gro METRO-MIX® 306 planting mixture, which typically has a pH of 6.0 to 6.8 and an organic matter content of about 30 percent, in 72-well, plastic propagation flats (Dillen Products; Middlefield Ohio). When required to ensure good germination and healthy plants, a fungicide treatment and/or other chemical or physical treatment was applied. The plants were grown in a greenhouse with an approximate 15 hour photoperiod which was maintained at about 23-29° C. during the day and 22-28° C. during the night until they reached the V1-V3 growth stage. Nutrients and water were added on a regular basis and supplemental lighting was provided with overhead metal halide 1000-Watt lamps as necessary.
A weighed amount of compound 1, determined by the rate to be tested, was dissolved in 1.2 mL of dimethyl sulfoxide (DMSO) to obtain concentrated stock solutions. […] The concentrated stock solutions obtained were diluted with 10.8 mL of an aqueous mixture containing 1.25% v/v (volume/volume) Agri-dex Crop Oil Concentrate. Compound requirements are based upon a 12 mL application volume at a rate of 187 L/ha. Formulated compounds were applied to the plant material with an overhead Mandel track sprayer equipped with a 8002E nozzle calibrated to deliver 187 L/ha over an application area of 0.503 square meter at a spray height of 18 inches ([…]) above the average plant canopy height. Control plants were sprayed in the same manner with the solvent blank.
The treated plants and control plants were placed in a greenhouse, as described above, and watered by sub-irrigation to prevent wash-off of the test compounds. Approximately 14 days after treatment, the treated plants were transplanted to individual pots containing Sun Gro METRO-MIX® 360. Plants that produced tassels and silk were then self-pollinated to obtain dihaploid seed.
Table 3 illustrates the results of doubling rate after spray treatment with the chemicals of interest. […] The spray treated plant tassels and silks were synchronized well and the plants shed more pollen.

[2] = test system: haploid germinated maize seedlings
Excerpt: An exemplary cycloalkene, 1,2,3-Trimethoxy-4-(1S,6R)-6-nitro-cyclohex-3-enyl)-benzene, designated as compound 1 was used to determine double haploid efficiency, doubling rate by a coleoptile tip cutting, seedling soaking method. […] Data provided in Tables 1, 2 and 3 were generated using haploid seeds obtained through cross pollination of a maize line of interest with an inducer maize line.
The resulting maize seeds were sorted based on marker gene color.
Coleoptile tips in maize seedlings were cut and the seedlings were soaked in various chromosome doubling agents as shown in Table 1. Haploid maize seeds were germinated and the coleoptile tips were excised (1-2 mm). Seedlings that survived were transplanted and grown until tassels and silk formed. Plants that produced tassels and silk were self-pollinated. Seeds produced from the self-pollination were visually assessed for the marker to identify them as double haploid (dihaploid).

rabbit = details: cited from earlier work
rats = assay: Dermal toxicity on rats; type: in vivo, rat; details: 200 mg/kg
[3] = after transplanting, rate 25 μM
[4] = after transplanting, rate 125 μM
[5] = seedling soak, colchicine 0.06% w/v (rate cell empty)

CC(C)OC(=O)Nc1cccc(Cl)c1 [Chlorpropham, chlorpropham]
# plants dead after treatment ([1]; spray, 70 g ai/ha): 0 | # plants dead after treatment ([1]; spray, 280 g ai/ha): 1 | No. plants dead after TP ([2]; after transplanting, rate 5 μM): 0 | No. plants dead after TP [2, 3]: 0 | No. plants dead after TP [2, 4]: 0

COc1cc2c(c(OC)c1OC)-c1ccc(OC)c(=O)cc1[C@@H](NC(C)=O)CC2 [Colchicine, colchicine]
Eye irritation (rabbit): about 1 %/3D | No. plants dead after TP ([2]; after transplanting, colchicine 0.06% w/v (rate cell empty)): 0 | No. plants alive [2, 5]: 38 | No. plants dead [2, 5]: 27

COc1ccc([C@@H]2CC=CC[C@H]2[N+](=O)[O-])c(OC)c1OC [Compound 1, 1,2,3-Trimethoxy-4-((1S,6R)-6-nitro-cyclohex-3-enyl)-benzene]
# plants dead after treatment ([1]; maize, in vivo): 0 | No. plants dead after TP ([2]; maize, in vivo, 5 μM): 2 | No. plants dead after TP ([2]; maize, in vivo, 25 μM): 2 | No. plants dead after TP ([2]; maize, in vivo, 125 μM): 2 | dermal toxicity (rats): No dermal toxicity was observed

C#CC(C)(C)NC(=O)c1cc(Cl)cc(Cl)c1 [Pronamide, pronamide]
# plants dead after treatment ([1]; spray, 35 g ai/ha): 0 | # plants dead after treatment ([1]; spray, 140 g ai/ha): 0 | No. plants dead after TP ([2]; after transplanting, rate 5 μM): 3 | No. plants dead after TP [2, 3]: 1 | No. plants dead after TP [2, 4]: 0
